Experimental findings from ChEMBL document CHEMBL3217733, “Synthesis of precursors and macrocycle analogs of aerucyclamides as anti-trypanosomal agents” (Medchemcomm, 2012) are described below.

Series [1] concerns Trypanosoma brucei brucei. As to the kind of experiment: Antitrypanosomal activity against Trypanosoma brucei brucei strain 427 assessed as growth inhibition at 25 uM. The note with it: read-out: GI. It is filed as functional.
Another series has as its system J774. As to the kind of experiment: Cytotoxicity against […] mouse J774 cells after 24 hrs by WST1 assay. It is filed as cell-based. The note with it: J774, 24 h.
Series [2] has as its system Trypanosoma brucei brucei. The experiment in a line: Antitrypanosomal activity against infective form of Trypanosoma brucei brucei strain 427 assessed as growth inhibition. It is filed as functional, organism-based.
The nature of series [3]: Selectivity index, ratio of EC50 for mouse J774 cells to EC50 for infective form of Trypanosoma brucei brucei strain 427. It is filed as toxicity, cell-based. The note with it: read-out: Ratio EC50.

The structures appear in SMILES notation.

With `CCOC(=O)c1csc(CNC(=O)OC(C)(C)C)n1`, the inhibition of growth at 25 µM in series [1] was 26.4%. Turning to `CC[C@H](C)[C@H](NC(=O)c1csc(CNC(=O)OC(C)(C)C)n1)c1nc(C(=O)OC)co1`, in series [1], the inhibition of growth at 25 µM came out at 8.1%.

For `CC[C@H](C)[C@H](NC(=O)c1csc(CNC(=O)OC(C)(C)C)n1)c1nc(C(=O)N[C@H](c2nc(C(=O)OC)co2)[C@@H](C)CC)co1`, in series [1], the inhibition of growth at 25 µM was determined as 18.3%. In the case of `CC[C@H](C)[C@@H]1NC(=O)c2coc(n2)[C@H]([C@@H](C)CC)NC(=O)c2csc(n2)CNC(=O)c2coc1n2`, the inhibition of growth at 25 µM in series [1] came out at 16.2%. Regarding `CC[C@H](C)[C@H](NC(=O)c1csc([C@@H](NC(=O)OC(C)(C)C)[C@@H](C)CC)n1)c1nc(C(=O)OC)co1`, the inhibition of growth at 25 µM in series [1] was 41.1%.

On to `CC[C@H](C)[C@@H]1NC(=O)c2coc(n2)[C@H]([C@@H](C)CC)NC(=O)c2coc(n2)[C@H]([C@@H](C)CC)NC(=O)c2coc1n2`, for which the inhibition of growth at 25 µM in series [1] was 13.5%. As for `CC[C@H](C)[C@H](NC(=O)c1csc([C@@H](NC(=O)c2csc(CNC(=O)OC(C)(C)C)n2)[C@@H](C)CC)n1)c1nc(C(=O)OC)co1`, the inhibition of growth at 25 µM in series [1] is 20.9%.

Consider `CC[C@H](C)[C@@H]1NC(=O)c2csc(n2)[C@H]([C@@H](C)CC)NC(=O)c2csc(n2)CNC(=O)c2coc1n2`, for which the inhibition of growth at 25 µM in series [1] is 100%. The half-maximal effective concentration (EC50) with J774 was found to be 48.8 µM; in series [2], 11.4 µM. In addition, the selectivity ratio in series [3] amounted to 4.3. For `CC[C@H](C)[C@H](NC(=O)c1csc(CNC(=O)OC(C)(C)C)n1)c1nc(C(=O)OC)cs1`, in series [1], the inhibition of growth at 25 µM stood at 11.5%. In the case of `CC[C@H](C)[C@H](NC(=O)c1csc([C@@H](NC(=O)c2csc(CNC(=O)OC(C)(C)C)n2)[C@@H](C)CC)n1)c1nc(C(=O)OC)c(C)o1`, the inhibition of growth at 25 µM in series [1] was 79.1%. In addition, the EC50 was 915 µM with J774 and 6 µM in series [2]. Besides, the selectivity ratio in series [3] is 150.

On to `CC[C@H](C)[C@@H]1NC(=O)c2csc(n2)[C@H]([C@@H](C)CC)NC(=O)c2csc(n2)CNC(=O)c2nc1oc2C` [MACROCYCLE], for which the inhibition of growth at 25 µM in series [1] turned out to be 41.7%. Take `CN(C)c1ccc2nc3ccc(=[N+](C)C)cc-3sc2c1` [METHYLENE BLUE CATION]: the EC50 in series [2] turned out to be 0.4 µM.
